The source of these data is US20150202179A1, “FATTY ACID DERIVATIVES FOR USE IN A METHOD OF TREATING DEPRESSION AND ASSOCIATED CONDITIONS” (YISSUM RESEARCH DEVELOPMENT COMPANY OF THE HEBREW …, priority 2012, published 2015).

Like-named read-outs stand apart in the source and are kept apart here.

Assay [1] can be described thus: Weight and food consumption in OB/OB mice which lack the leptin gene. Type of assay: in vivo. The source says:
Thus the compounds of the invention can be used to treat conditions that are mediated by the enhancement of leptin levels. In obesity there is high leptin level however the leptin receptors are not responding. High CNS leptin level has anti-depression effect however, if there is tolerance there is no anti depression effect.

The nature of assay [2]: Forced Swim Test (FST), separated BALB/c mice. It is filed as in vivo. Conditions: compounds 1 mg/kg i.p., imipramine 10 mg/kg i.p.; day 8; in relation to vehicle. The protocol: (§1) Forced swim test (FST): The animal is placed in a circular, transparent, plexiglass tank measuring 21 cm in diameter and 46 cm in height containing water 15 cm high, maintained at 23-25° C. […] Also measured is the latency period, the time elapsing, for each animal from immersion in the water tank until the first occurrence of immobility. Since climbing activity is minimal in mice, […].
50, 2 month old female BALB/c mice, 10 mice per group, on ad libitum diet were separated (each mouse in a different cage) for 9 days (Separation Stress, a model for depression). On the 7, 8, 9, 34-40 days mice were administered with either vehicle or compounds x, 12 and 15 (1 mg/kg i.p.) or imipramine 10 mg/kg (antidepressant) i.p. and tested in the forced swim test (FST) on day 8.

Assay [3] can be described thus: Novelty Suppressed Feeding Test (NSFT), separated BALB/c mice. Type of assay: in vivo. Conditions: compounds 1 mg/kg i.p., day 9. The protocol: (§2) Novelty suppressed feeding test (NSFT): After the last treatment injection, all food is removed from the cage for 24 hours (water available ad libitum). At the end of this time, the animal is introduced into a 50×50×20 (height) cm wooden arena the floor of which is marked with equal rectangles of 10×10 cm. A pellet of food is placed on an elevated surface in the center of the arena. The time elapsing from the introduction of the animal into the arena until it commences eating (latency to feed) is recorded. The animal is removed from the arena immediately after it begins to eat or after not doing so for 5 min. During the test, the number of lines crossed by the animal is counted as a measure of motor activity, and calibrated for 5 min if the animal started eating before that. After the test, the animal is immediately transferred to its home cage and left to consume a previously weighed amount of food for 10 minutes. On completion of this period the food is weighed again to calculate the home cage food consumption.
50, 2 month old female BALB/c mice, 10 mice per group, on ad libitum diet were separated (each mouse in a different cage) for 9 days (Separation Stress, a model for depression). On the 7, 8, 9, 34-40, days mice were administered with either vehicle or compounds x, 12 and 15 (1 mg/kg i.p.) or imipramine 10 mg/kg (antidepressant) i.p. and tested in Novel Suppressed Feeding Test on day 9.
as §2, with “FIGS. 9A-9C show the results of the NSFT. […]” for “Novelty suppressed feeding test (NSFT):”, “hours.” for “hours (water available ad libitum).”, “into” for “into a 50×50×20 (height) cm wooden arena”, “open field test.” for “floor of which is marked with equal rectangles of 10×10 cm.”, “to find” for “elapsing from”, “food was” for “introduction of the animal into the arena until it commences eating (latency to feed) is”

For the next assay, the system named is P-AMPK protein. The assay can be described thus: P-AMPK protein levels by western blot. Type of assay: in vivo, BALB/c mice. As to the method: 50, 2 month old female BALB/c mice, 10 mice per group, on ad libitum diet were separated (each mouse in a different cage) for 9 days (Separation Stress, a model for depression). On the 7, 8, 9, 34-40 days mice were administered with either vehicle or compounds x, 12 and 15 (1 mg/kg i.p.) or imipramine 10 mg/kg (antidepressant). P-AMPK protein was monitored by western blot. […] (p<0.05a).

Assay [4] in a line: Forced Swim Test, compound X dose study. It is filed as in vivo, BALB/c mice. The following applies: day 11. As to the method: as §1
50, 2 month old BALB/c mice, 10 mice per group, on ad libitum diet were divided to 5 experimental groups with equal weight. On the 2, 3, 4, 5, 9, 11, 16, 18, 23, 25, 29, 31 days mice were administered with either vehicle or compound X 0.1, 1, 10 mg/kg i.p. or imipramine 10 mg/kg. Forced Swim Test was evaluated on day 11.

Assay [5] can be described thus: Open Field Test, compound X dose study. It is filed as in vivo, BALB/c mice. Conditions: 10 mg/kg i.p.; day 25; better than the other concentrations. The protocol:
50, 2 month old BALB/c mice, 10 mice per group, on ad libitum diet were divided to 5 experimental groups with equal weight. On the 2, 3, 4, 5, 9, 11, 16, 18, 23, 25, 29, 31 days mice were administered with either vehicle or compound x 0.1, 1, 10 mg/kg i.p. or imipramine 10 mg/kg Open Field Test was evaluated on day 25. The more time they spent on the […] the less depressed.

Consider `CCCCCCCC/C=C\CCCCCCCC(=O)N[C@H](CO)C(C)C` [Compound 1, oleoyl-L-valinol amide], for which the food consumption result in assay [1] is “did not change”. Besides, the “weight (weight loss)” value in assay [1] is “did not change”; in assay [1] (listed as OVA) it was “not body weight”; in assay [1] (listed as X) it was “do not produce weight loss”. The “swimming activity in forced swim test” value in assay [2] is “significantly enhanced swimming activity”; in assay [4] (0.1 mg/kg i.p.) it was “improved significantly swimming activity”; in assay [4] (1 mg/kg i.p., better than imipramine 10 mg/kg), “improved significantly swimming activity”; in assay [4] (10 mg/kg i.p., better than imipramine 10 mg/kg), “improved significantly swimming activity”. Moreover, the “food intake in NSFT” value in assay [3] (in relation to vehicle and more than imipramine 10 mg/kg) was “significantly enhanced food intake”. In assay [3] (resembled imipramine 10 mg/kg), the “motor activity in NSFT” value is reported as “enhanced motor activity”. For the same compound, in the assay with P-AMPK protein (hippocampus, FIG. 14A), the “P-AMPK protein in the hippocampus” value is “significant increase”. Also, the “P-AMPK protein in the hypothalamus” value with P-AMPK protein (hypothalamus, FIG. 14B) is “significant increase”. Moreover, in assay [5], the “motor activity in Open Field Test” value is given as “improved motor activity like the impramine”.
